According to patent US10231954B2, “Neurodegenerative therapies” (LYTIX BIOPHARMA AS, priority 2014, dated 2019):
Where two headings read alike, the source gives them in different places.

How the values were obtained:
Type in all cases: biochemical
IKKb = target: T1, IKKb (Homo sapiens, UniProt O14920); assay: Kinase profiling IKKb; details: for remaining activity at 100 µM: read-out: residual kinase activity, IKKb
T1 sequence (O14920 1-756): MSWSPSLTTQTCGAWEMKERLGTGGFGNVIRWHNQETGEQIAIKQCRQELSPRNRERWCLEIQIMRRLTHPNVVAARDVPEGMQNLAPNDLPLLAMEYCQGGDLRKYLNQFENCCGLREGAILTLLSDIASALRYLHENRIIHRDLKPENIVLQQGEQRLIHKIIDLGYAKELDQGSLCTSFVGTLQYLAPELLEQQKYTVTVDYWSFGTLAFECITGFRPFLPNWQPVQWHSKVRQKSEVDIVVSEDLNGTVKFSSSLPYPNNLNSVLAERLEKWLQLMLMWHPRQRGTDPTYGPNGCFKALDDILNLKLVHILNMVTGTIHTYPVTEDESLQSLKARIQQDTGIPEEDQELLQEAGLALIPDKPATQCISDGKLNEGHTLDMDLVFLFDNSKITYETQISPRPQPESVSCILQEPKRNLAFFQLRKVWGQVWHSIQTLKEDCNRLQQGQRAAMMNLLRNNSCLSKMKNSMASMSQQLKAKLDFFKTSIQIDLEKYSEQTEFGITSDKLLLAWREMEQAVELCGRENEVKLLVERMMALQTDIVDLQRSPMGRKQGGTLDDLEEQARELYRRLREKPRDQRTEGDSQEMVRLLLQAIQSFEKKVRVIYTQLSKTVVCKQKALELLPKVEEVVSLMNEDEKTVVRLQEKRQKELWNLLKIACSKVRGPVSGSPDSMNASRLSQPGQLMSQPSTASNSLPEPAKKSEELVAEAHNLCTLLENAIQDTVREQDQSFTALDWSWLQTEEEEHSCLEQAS
Text: (§1) Any value less that 25 is considered to be highly significant inhibition.

MELK = MELK (Homo sapiens, UniProt Q14680); assay: Kinase profiling MELK; details: for remaining activity at 100 µM: read-out: residual kinase activity, MELK
Text: as §1

IR = IR (Homo sapiens, UniProt P06213); assay: Kinase profiling IR; details: for remaining activity at 100 µM: read-out: residual kinase activity, IR
Text: as §1

EIF2AK3 = target: T2, EIF2AK3 (Homo sapiens, UniProt Q9NZJ5); assay: Kinase profiling EIF2AK3; details: for remaining activity at 100 µM: read-out: residual kinase activity, EIF2AK3
T2 sequence (Q9NZJ5 30-1116): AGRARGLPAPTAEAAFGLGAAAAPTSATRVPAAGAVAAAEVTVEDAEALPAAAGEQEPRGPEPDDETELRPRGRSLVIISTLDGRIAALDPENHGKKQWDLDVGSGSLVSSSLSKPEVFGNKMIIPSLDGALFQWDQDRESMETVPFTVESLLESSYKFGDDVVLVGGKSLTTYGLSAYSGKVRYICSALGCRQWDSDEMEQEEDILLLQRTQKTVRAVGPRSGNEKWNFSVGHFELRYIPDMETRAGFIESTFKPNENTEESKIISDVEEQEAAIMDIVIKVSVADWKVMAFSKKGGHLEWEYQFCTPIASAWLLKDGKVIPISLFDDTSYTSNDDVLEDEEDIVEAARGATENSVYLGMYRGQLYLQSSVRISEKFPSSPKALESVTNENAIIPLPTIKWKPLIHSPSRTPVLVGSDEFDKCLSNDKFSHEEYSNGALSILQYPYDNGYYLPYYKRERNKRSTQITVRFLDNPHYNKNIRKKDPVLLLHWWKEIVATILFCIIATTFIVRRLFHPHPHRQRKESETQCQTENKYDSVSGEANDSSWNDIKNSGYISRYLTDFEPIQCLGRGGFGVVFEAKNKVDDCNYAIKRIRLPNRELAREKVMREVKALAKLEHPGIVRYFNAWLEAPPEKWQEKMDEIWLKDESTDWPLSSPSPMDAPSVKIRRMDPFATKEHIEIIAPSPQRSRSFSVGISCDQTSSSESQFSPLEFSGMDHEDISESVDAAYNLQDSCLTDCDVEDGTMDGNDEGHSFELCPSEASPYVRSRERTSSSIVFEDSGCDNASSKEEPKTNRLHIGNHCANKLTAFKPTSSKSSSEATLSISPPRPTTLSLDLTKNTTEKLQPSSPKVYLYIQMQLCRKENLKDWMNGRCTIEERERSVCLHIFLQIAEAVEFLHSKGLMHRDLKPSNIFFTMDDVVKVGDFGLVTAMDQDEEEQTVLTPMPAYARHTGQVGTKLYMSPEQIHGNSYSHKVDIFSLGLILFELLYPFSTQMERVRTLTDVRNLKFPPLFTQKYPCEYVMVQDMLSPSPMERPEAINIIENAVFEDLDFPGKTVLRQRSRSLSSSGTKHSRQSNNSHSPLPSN
Text: as §1

TLK1 = target: T3, TLK1 (Homo sapiens, UniProt Q9UKI8); assay: Kinase profiling TLK1; details: for remaining activity at 100 µM: read-out: residual kinase activity, TLK1
T3 sequence (Q9UKI8 1-766): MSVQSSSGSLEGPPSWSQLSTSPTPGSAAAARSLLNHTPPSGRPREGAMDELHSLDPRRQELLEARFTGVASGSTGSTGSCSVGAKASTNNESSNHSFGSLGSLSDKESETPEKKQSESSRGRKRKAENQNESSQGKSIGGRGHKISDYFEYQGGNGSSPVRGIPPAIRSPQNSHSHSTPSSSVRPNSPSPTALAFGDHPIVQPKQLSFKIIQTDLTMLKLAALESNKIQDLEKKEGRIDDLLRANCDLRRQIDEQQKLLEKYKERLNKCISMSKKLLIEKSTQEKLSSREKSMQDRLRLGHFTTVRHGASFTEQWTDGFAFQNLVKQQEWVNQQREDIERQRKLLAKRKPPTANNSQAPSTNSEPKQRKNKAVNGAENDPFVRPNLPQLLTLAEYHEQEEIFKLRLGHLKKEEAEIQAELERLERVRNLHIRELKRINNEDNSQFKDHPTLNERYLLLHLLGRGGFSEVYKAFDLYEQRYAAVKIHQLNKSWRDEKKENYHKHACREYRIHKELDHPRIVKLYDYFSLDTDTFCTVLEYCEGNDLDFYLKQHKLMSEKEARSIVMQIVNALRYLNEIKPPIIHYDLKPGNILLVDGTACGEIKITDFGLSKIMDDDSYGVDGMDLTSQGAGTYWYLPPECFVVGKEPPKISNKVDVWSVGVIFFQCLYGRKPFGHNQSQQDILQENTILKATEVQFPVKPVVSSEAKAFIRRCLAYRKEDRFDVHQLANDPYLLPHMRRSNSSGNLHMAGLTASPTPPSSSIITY
Text: as §1

[1] = 100 micromolar inhibitor concentration, 100 is no change
[2] = 100 micromolar inhibitor, 100 = no change

MELK, sequence (Q14680 whole entry, species assumed): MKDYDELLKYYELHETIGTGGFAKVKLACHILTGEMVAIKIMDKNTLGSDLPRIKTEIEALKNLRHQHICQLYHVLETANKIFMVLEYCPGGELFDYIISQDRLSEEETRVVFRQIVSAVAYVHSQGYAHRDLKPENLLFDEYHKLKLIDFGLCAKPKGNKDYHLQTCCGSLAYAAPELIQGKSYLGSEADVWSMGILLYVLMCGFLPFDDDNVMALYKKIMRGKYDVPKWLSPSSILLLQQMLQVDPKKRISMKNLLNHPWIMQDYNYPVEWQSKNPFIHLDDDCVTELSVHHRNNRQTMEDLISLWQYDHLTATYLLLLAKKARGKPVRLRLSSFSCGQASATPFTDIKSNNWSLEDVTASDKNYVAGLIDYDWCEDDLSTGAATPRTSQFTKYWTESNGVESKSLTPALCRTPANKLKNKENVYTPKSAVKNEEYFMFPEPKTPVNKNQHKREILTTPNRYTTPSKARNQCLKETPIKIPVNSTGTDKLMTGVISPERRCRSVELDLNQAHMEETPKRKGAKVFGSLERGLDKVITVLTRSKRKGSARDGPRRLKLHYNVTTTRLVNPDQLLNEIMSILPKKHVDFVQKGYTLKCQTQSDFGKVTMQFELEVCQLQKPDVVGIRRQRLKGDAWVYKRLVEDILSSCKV
IR, sequence (P06213 28-1382): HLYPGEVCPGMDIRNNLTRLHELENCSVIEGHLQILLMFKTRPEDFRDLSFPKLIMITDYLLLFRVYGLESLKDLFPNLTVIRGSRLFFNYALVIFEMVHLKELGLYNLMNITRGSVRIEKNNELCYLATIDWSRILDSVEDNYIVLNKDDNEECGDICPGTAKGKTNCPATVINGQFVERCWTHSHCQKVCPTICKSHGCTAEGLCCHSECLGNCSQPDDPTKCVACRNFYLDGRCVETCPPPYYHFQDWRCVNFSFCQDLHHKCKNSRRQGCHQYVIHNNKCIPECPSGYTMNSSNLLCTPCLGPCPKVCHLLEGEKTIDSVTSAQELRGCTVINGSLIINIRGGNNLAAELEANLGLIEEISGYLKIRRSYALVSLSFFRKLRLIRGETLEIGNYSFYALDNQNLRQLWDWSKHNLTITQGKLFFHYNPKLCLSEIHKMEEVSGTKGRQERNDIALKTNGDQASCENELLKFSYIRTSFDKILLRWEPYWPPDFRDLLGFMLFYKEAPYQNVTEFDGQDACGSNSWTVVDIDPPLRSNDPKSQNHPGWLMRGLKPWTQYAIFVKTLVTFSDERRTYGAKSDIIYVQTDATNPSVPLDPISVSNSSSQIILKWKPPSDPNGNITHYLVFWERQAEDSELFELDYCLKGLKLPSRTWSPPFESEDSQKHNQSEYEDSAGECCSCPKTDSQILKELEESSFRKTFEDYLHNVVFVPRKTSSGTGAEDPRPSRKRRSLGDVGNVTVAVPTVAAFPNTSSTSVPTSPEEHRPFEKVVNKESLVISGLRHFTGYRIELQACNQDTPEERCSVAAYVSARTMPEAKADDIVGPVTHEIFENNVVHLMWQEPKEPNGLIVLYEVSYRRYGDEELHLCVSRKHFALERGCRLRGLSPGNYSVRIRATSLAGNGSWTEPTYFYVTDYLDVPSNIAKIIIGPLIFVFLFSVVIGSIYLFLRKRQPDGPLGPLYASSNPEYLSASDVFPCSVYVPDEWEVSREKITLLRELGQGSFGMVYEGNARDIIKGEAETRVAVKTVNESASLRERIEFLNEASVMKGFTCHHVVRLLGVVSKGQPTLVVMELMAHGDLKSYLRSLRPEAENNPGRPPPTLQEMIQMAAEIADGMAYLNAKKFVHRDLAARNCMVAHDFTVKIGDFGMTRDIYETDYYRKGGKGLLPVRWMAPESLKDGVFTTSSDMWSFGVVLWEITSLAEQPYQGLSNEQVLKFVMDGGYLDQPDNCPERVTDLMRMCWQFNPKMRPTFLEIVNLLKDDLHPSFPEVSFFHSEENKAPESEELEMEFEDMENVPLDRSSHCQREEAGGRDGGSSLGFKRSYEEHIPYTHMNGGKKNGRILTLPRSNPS

SMILES	remaining activity at 100 µM (IKKb; [1]) [%]	remaining activity at 100 µM (MELK; [1]) [%]	remaining activity at 100 µM (IR; [1]) [%]	remaining activity at 100 µM (EIF2AK3; [1]) [%]	remaining activity at 100 µM (TLK1; [1]) [%]	residual kinase activity, IKKb (IKKb; [1])	residual kinase activity, MELK (MELK; [1])	residual kinase activity, IR (IR; [1])	residual kinase activity, EIF2AK3 (EIF2AK3; [1])	residual kinase activity, TLK1 (TLK1; [1])	other results
CC(=O)Nc1nc2cc(O)ccc2s1 [Compound 01-66, N-(5-hydroxybenzo[d]thiazol-2-yl)acetamide]											remaining activity at 100 µM (IKKb): 62%; remaining activity at 100 µM (MELK): 17%; remaining activity at 100 µM (IR): 63%; remaining activity at 100 µM (EIF2AK3): 59%; remaining activity at 100 µM (TLK1): 92%
CC(=O)Nc1nc2ccc(O)cc2s1 [Compound 01-71]	63	24	35	77	45						
CC(=O)Nc1nc2ccc(C(F)(F)F)cc2s1 [Compound 01-90]	75	49	84	105	82						
CC(=O)Nc1nc2ccc(C#N)cc2s1 [Compound 01-94]	58	34	81	78	53						
CC(=O)Nc1cccc(NC(=O)c2nc3ccc(O)cc3s2)c1 [Compound 03-07, N-(3-acetamidophenyl)-6-hydroxybenzo[d]thiazole-2-carboxamide]											remaining activity at 100 µM (IKKb; [2]): 88%; remaining activity at 100 µM (MELK; [2]): 12%; remaining activity at 100 µM (IR; [2]): 66%; remaining activity at 100 µM (EIF2AK3; [2]): 69%; remaining activity at 100 µM (TLK1; [2]): 108%
O=C(Nc1nc2cc(O)ccc2s1)c1ccncc1 [Compound 03-11]						80	48	106	65	95	
O=C(Nc1nc2ccc(O)cc2s1)c1ccccn1 [Compound 03-12]						84	31	27	73	96	
O=C(Nc1nc2cc(O)ccc2s1)c1ccccn1 [Compound 03-13]						88	22	74	89	99	
COc1ccc2sc(NC(C)=O)nc2c1 [Compound 03-21]	98	44	109	82	97						
CC(=O)Nc1nc2ccccc2s1 [Compound 03-32]						75	83	87	104	92	
O=C(Nc1nc2cc(O)ccc2s1)c1cccnc1 [Compound 03-33]						81	29	105	87	97	
O=C(Nc1nc2ccc(O)cc2s1)c1ccccc1 [Compound 03-60]						87	18	31	45	74	
CC(=O)Nc1nc2cc(C(F)(F)F)ccc2s1 [Compound 03-73]	94	91	102	100	103						
CC(=O)Nc1nc2cc(C)ccc2s1 [Compound 03-76]						59	58	97	97	106	
CC(=O)Nc1nc2cc(F)ccc2s1 [Compound 03-77]	61	67	87	99	89						
O=C(Nc1nc2ccc(O)cc2s1)c1ccncc1 [Compound 08-42]						82	22	51	59	97	
O=C(Nc1nc2ccc(O)cc2s1)c1cccnc1 [Compound 08-44]						63	29	35	51	90	
